# Test results from publication PMC10352257, “In vivo effects of the alpha-synuclein misfolding inhibitor minzasolmin supports clinical development in Parkinson’s disease” (NPJ Parkinson's Disease, 2023).
# Where two headings read alike, the source gives them in different places.
# Assay: Mouse pharmacokinetics after single intraperitoneal dose (plasma and brain)
# Assay type: in vivo
# Conditions: for AUC last / Cmax / AUC(0-t): mean ± SEM; for Kp / Tmax / half-life / Cmax / AUC(0-inf) / AUC(0-t): male, C57BL/6, mouse, ip; for Kp: brain and plasma, from AUCinf, read-out: brain/plasma exposure (AUC) ratio
# Experimental: Characterization of exposure profile and brain distribution of minzasolmin in male C57BL/6 mice was performed at UCB BioPharma SPRL (Braine l’Alleud, Belgium). All the procedures were approved by the UCB Ethics Committee for Animal Experimentation and conducted in compliance with the Helsinki declaration and the guidelines of the European Community Council directive 86/609/EEC. UCB BioPharma is fully accredited by the Association for Assessment and Accreditation of Laboratory Animal Care (AAALAC). Male C57BL/6 mice (8 weeks of age, 20–27 g), purchased from Charles River Laboratories (Toulouse, France), were dosed intraperitoneally with 1 or 5 mg/kg of minzasolmin (10 mL/kg of 40% w/v Captisol® in water). Three mice were used per dose and per time of sampling (0.25, 0.5, 1, 2.5, and 6 h). Mice were anaesthetized with isofluorane and blood was collected from the vena cava into K2EDTA tubes. Animals were then perfused through the left ventricle with 20 mL of heparinized NaCl 0.9% (20 UI/mL), rate flow 20 mL/min, 1 min perfusion time. At the end of the procedure mice were sacrificed by cervical dislocation. Brain samples were weighed and collected in cold glass vials and stored at −20 °C, until bioanalysis. All blood samples were thoroughly but gently mixed following collection and placed directly on ice then centrifuged at 4 °C, 3000 g for 15 min within 30 min after sampling. The collected plasma was stored at −20 °C, until bioanalysis. Samples were analyzed by liquid chromatography-tandem mass spectrometry (LC-MS/MS). Results of minzasolmin concentrations in plasma and brain are reported in ng/mL and ng/g respectively. Pharmacokinetic profiling was performed by non-compartmental analysis, using Phoenix WinNonlin v6.4 software (Pharsight Inc., St. Louis, MO). All computations utilized the sparse sampling method according to the experimental composite sampling regimen.
# [1] = brain, 1 mg/kg single i.p., C57/Bl6 mice
# [2] = brain, 5 mg/kg single i.p., C57/Bl6 mice
# [3] = plasma, 1 mg/kg single i.p., C57/Bl6 mice
# [4] = plasma, 5 mg/kg single i.p., C57/Bl6 mice
smiles,measurement,setting,value
CCCC[C@H](Cc1c[nH]c2ccccc12)NC(=O)c1cnc(N2CCN(C)CC2)s1 [minzasolmin],AUC inf,[1],99.0 ng·h/g
same,AUC last,[1],93.9 ± 4.2 ng·h/g
same,AUC inf,[2],422 ng·h/g
same,AUC last,[2],394 ± 21 ng·h/g
same,time of highest brain levels after dosing,"brain, 1 and 5 mg/kg i.p.",0.5 h
same,Kp,1 mg/kg i.p.,0.32
same,Kp,5 mg/kg i.p.,0.26
same,Tmax,"brain, 1 mg/kg, brain, 1 mg/kg single i.p., C57/Bl6 mice, read-out: T max",30 min
same,Tmax,"brain, 5 mg/kg, brain, 5 mg/kg single i.p., C57/Bl6 mice, read-out: T max",30 min
same,half-life,[1],33.6 min
same,Cmax,[1],76 ± 4 ng/g
same,half-life,[2],36 min
same,Cmax,[2],292 ± 30 ng/g
same,AUC(0-inf),[3],308 ng·h/mL
same,half-life,[3],41.4 min
same,AUC(0-t),[3],307 ± 13 ng·h/mL
same,Cmax,[3],332 ± 18 ng/mL
same,AUC(0-inf),[4],1650 ng·h/mL
same,half-life,[4],49.8 min
same,AUC(0-t),[4],1640 ± 86 ng·h/mL
same,Cmax,[4],1320 ± 124 ng/mL
same,Tmax,"plasma, 1 mg/kg, plasma, 1 mg/kg single i.p., C57/Bl6 mice, read-out: T max",30 min
same,Tmax,"plasma, 5 mg/kg, plasma, 5 mg/kg single i.p., C57/Bl6 mice, read-out: T max",15 min
same,Tmax,"plasma, 5 mg/kg, plasma, 1 and 5 mg/kg i.p., read-out: time of maximum plasma concentration after dosing",15 to 30 min
